Where a SMILES comes first, the peptide text is derived from it.
Assays:
Assay in all cases: biochemical
Format in all cases: binding
HLA A*3001 = HLA A*3001 (Homo sapiens, UniProt P04439, D140H/D185E/E176W/F33S/G80R/H175R/K168Q/R138E/R41S)
HLA B*1501 = HLA B*1501 (Homo sapiens, UniProt P01889, A329T/A93T/A95T/C349S/D201E/D98Y/E187L/E204Q/E69M/E70A/K202T/N87E/Q94N/R155S/R180W/S121R/S35A/S48A/V306I/V36M/Y140S/Y91S)
HLA B*1503 = HLA B*1503 (Homo sapiens, UniProt P01889, A329T/A93T/A95T/C349S/D201E/D98Y/E187L/E204Q/K202T/N87E/Q94N/R155S/R180L/S121R/S35A/V306I/V36M/Y140S/Y91S)

HLA A*3001, sequence (P04439 25-365 limits assumed, stated change not applied): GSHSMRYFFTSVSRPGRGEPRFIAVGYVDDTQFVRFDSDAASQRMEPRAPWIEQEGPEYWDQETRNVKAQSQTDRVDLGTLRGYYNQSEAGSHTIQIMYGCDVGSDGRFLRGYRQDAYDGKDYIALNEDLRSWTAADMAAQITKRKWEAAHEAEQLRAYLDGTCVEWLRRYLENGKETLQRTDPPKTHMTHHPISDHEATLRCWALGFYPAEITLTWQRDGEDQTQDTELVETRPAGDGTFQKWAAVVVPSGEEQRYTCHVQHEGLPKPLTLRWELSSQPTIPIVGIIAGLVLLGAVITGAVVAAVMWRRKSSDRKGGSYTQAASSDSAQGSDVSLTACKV

| SMILES | IC50 (HLA A*3001) [nM] | IC50 (HLA B*1501) [nM] | IC50 (HLA B*1503) [nM] |
| --- | --- | --- | --- |
| CC[C@H](C)[C@H](NC(=O)[C@H](CO)NC(=O)[C@H](CO)NC(=O)[C@H](CO)NC(=O)[C@H](CCCCN)NC(=O)[C@H](CCCNC(=N)N)NC(=O)[C@H](CO)NC(=O)CN)C(=O)N[C@@H](CC(C)C)C(=O)O [3102.0276] (H-GSRKSSSIL-OH) | 1.6 | – | – |
| CSCC[C@H](NC(=O)[C@H](CCSC)NC(=O)[C@@H]1CCCN1C(=O)[C@@H](NC(=O)[C@@H](NC(=O)[C@H](CC(N)=O)NC(=O)[C@H](CCCNC(=N)N)NC(=O)[C@H](CO)NC(=O)[C@@H](N)CCCCN)[C@@H](C)O)[C@@H](C)O)C(=O)O [3102.0277] (H-KSRNTTPMM-OH) | 0.1 | – | – |
| C[C@H](NC(=O)[C@H](CCCNC(=N)N)NC(=O)[C@H](Cc1ccccc1)NC(=O)[C@H](CCCCN)NC(=O)[C@@H]1CCCN1C(=O)[C@@H]1CCCN1C(=O)[C@H](CCCCN)NC(=O)[C@H](Cc1ccccc1)NC(=O)[C@@H](N)Cc1c[nH]cn1)C(=O)O [3102.0279] (H-HFKPPKFRA-OH) | 8.9 | – | – |
| CC[C@H](C)[C@H](NC(=O)[C@H](C)NC(=O)[C@H](Cc1ccc(O)cc1)NC(=O)[C@H](CCCCN)NC(=O)[C@H](CCCCN)NC(=O)[C@H](CCCCN)NC(=O)[C@@H](NC(=O)[C@@H](N)CCCCN)C(C)C)C(=O)NCC(=O)O [3102.0280] (H-KVKKKYAIG-OH) | 1.6 | – | – |
| CC(C)C[C@H](NC(=O)[C@H](CCCNC(=N)N)NC(=O)[C@H](Cc1ccc(O)cc1)NC(=O)[C@H](CCC(=O)O)NC(=O)[C@H](CCC(N)=O)NC(=O)[C@H](Cc1ccccc1)NC(=O)[C@@H](NC(=O)[C@@H](N)Cc1c[nH]cn1)C(C)C)C(=O)N[C@@H](CCCCN)C(=O)O [3102.0284] (H-HVFQEYRLK-OH) | 27 | – | – |
| CC[C@H](C)[C@H](NC(=O)[C@H](CCCCN)NC(=O)[C@@H](NC(=O)[C@@H](N)CCCCN)[C@@H](C)O)C(=O)N[C@@H](CC(=O)O)C(=O)N[C@H](C(=O)N[C@H](C(=O)N[C@@H](Cc1ccccc1)C(=O)N[C@@H](C)C(=O)O)[C@@H](C)CC)[C@@H](C)CC [3102.0285] (H-KTKIDIIFA-OH) | 10 | – | – |
| CC(C)C[C@H](NC(=O)[C@H](C)NC(=O)[C@H](CCC(=O)O)NC(=O)[C@H](CCCNC(=N)N)NC(=O)[C@@H](NC(=O)[C@@H](N)CCCCN)C(C)C)C(=O)N[C@@H](CC(=O)O)C(=O)NCC(=O)N[C@H](C(=O)O)C(C)C [3102.0286] (H-KVREALDGV-OH) | 0.11 | – | – |
| CSCC[C@H](NC(=O)[C@H](CO)NC(=O)[C@H](C)NC(=O)CNC(=O)[C@H](CCCCN)NC(=O)[C@H](C)NC(=O)[C@H](C)N)C(=O)N[C@H](C(=O)N[C@@H](CC(C)C)C(=O)O)[C@@H](C)O [3102.0287] (H-AAKGASMTL-OH) | 1 | – | – |
| CC[C@H](C)[C@H](NC(=O)[C@H](CC(N)=O)NC(=O)[C@H](CCCNC(=N)N)NC(=O)[C@@H](NC(=O)[C@@H](NC(=O)[C@H](CC(N)=O)NC(=O)[C@H](CCCNC(=N)N)NC(=O)[C@@H](NC(=O)[C@@H](N)CCCCN)[C@@H](C)O)C(C)C)[C@@H](C)CC)C(=O)O [3102.0486] (H-KTRNVIRNI-OH) | 0.072 | – | – |
| CC[C@H](C)[C@H](NC(=O)CNC(=O)[C@@H]1CCCN1C(=O)[C@@H](NC(=O)[C@H](CCCNC(=N)N)NC(=O)[C@H](CCC(N)=O)NC(=O)[C@H](CCCCN)NC(=O)[C@H](CC(C)C)NC(=O)[C@@H](N)CCCNC(=N)N)[C@@H](C)O)C(=O)O [3102.0640] (H-RLKQRTPGI-OH) | – | 17 | – |
| CSCC[C@H](NC(=O)[C@H](CC(C)C)NC(=O)[C@H](Cc1ccc(O)cc1)NC(=O)[C@H](CCCCN)NC(=O)[C@H](CCSC)NC(=O)[C@@H](N)CO)C(=O)N[C@@H](CC(C)C)C(=O)N[C@@H](CC(C)C)C(=O)N[C@@H](Cc1ccccc1)C(=O)O [3102.0789] (H-SMKYLMLLF-OH) | – | 3.8 | – |
| CC(C)C[C@H](N)C(=O)NCC(=O)N[C@@H](Cc1ccccc1)C(=O)N[C@@H](CC(=O)O)C(=O)N[C@H](C(=O)N[C@H](C(=O)N[C@@H](C)C(=O)N[C@@H](Cc1ccc(O)cc1)C(=O)N[C@@H](Cc1ccccc1)C(=O)O)C(C)C)C(C)C [3102.0790] (H-LGFDVVAYF-OH) | – | 67 | – |
| CC[C@H](C)[C@H](NC(=O)CN)C(=O)N[C@@H](CC(N)=O)C(=O)N[C@@H](CCCCN)C(=O)N[C@@H](CCCNC(=N)N)C(=O)N[C@@H](CO)C(=O)N[C@H](C(=O)N1CCC[C@H]1C(=O)N[C@@H](Cc1ccccc1)C(=O)O)[C@@H](C)O [3102.0792] (H-GINKRSTPF-OH) | – | 0.72 | – |
| CC[C@H](C)[C@H](NC(=O)[C@H](CO)NC(=O)[C@H](CO)NC(=O)[C@H](CCCCN)NC(=O)[C@@H](NC(=O)[C@@H](N)CC(C)C)C(C)C)C(=O)N[C@@H](CC(C)C)C(=O)N[C@H](C(=O)N[C@@H](CC(C)C)C(=O)O)[C@@H](C)O [3102.0793] (H-LVKSSILTL-OH) | – | 3.1 | – |
| CSCC[C@H](NC(=O)[C@@H](N)CCCNC(=N)N)C(=O)N[C@@H](CC(N)=O)C(=O)N[C@H](C(=O)N[C@@H](Cc1ccccc1)C(=O)N[C@@H](CC(N)=O)C(=O)NCC(=O)N[C@@H](Cc1c[nH]cn1)C(=O)N[C@@H](CC(C)C)C(=O)O)C(C)C [3102.0797] (H-RMNVFNGHL-OH) | – | 28 | – |
| CC(C)C[C@H](N)C(=O)N[C@@H](C)C(=O)N[C@@H](CC(N)=O)C(=O)N[C@H](C(=O)N[C@@H](CC(N)=O)C(=O)N[C@@H](Cc1ccccc1)C(=O)N[C@@H](Cc1ccccc1)C(=O)N[C@H](C(=O)N[C@@H](Cc1ccccc1)C(=O)O)C(C)C)[C@@H](C)O [3102.0800] (H-LANTNFFVF-OH) | – | 17 | – |
| CC[C@H](C)[C@H](NC(=O)[C@@H](NC(=O)[C@@H](N)CO)[C@@H](C)CC)C(=O)N[C@H](C(=O)N[C@@H](CC(C)C)C(=O)N[C@@H](Cc1ccccc1)C(=O)N[C@@H](CCC(N)=O)C(=O)N[C@@H](CCCNC(=N)N)C(=O)N[C@@H](Cc1ccccc1)C(=O)O)C(C)C [3102.0801] (H-SIIVLFQRF-OH) | – | 1.1 | – |
| CSCC[C@H](NC(=O)[C@H](CCC(=O)O)NC(=O)[C@H](C)NC(=O)[C@H](CC(N)=O)NC(=O)[C@H](CCC(=O)O)NC(=O)[C@H](CCCCN)NC(=O)[C@H](CC(N)=O)NC(=O)[C@H](CCSC)NC(=O)[C@@H](N)CC(C)C)C(=O)O [3102.0802] (H-LMNKENAEM-OH) | – | 7.7 | – |
| CC[C@H](C)[C@H](NC(=O)[C@@H](NC(=O)[C@@H](N)CC(C)C)[C@@H](C)CC)C(=O)N[C@@H](CCCCN)C(=O)N[C@@H](CO)C(=O)N[C@@H](CC(=O)O)C(=O)N[C@@H](Cc1c[nH]cn1)C(=O)N[C@@H](CCC(=O)O)C(=O)N[C@@H](Cc1ccccc1)C(=O)O [3102.0804] (H-LIIKSDHEF-OH) | – | 1.6 | – |
| CC[C@H](C)[C@H](NC(=O)[C@H](CCSC)NC(=O)[C@@H](N)CCC(=O)O)C(=O)N[C@@H](CC(C)C)C(=O)N[C@@H](CO)C(=O)N[C@H](C(=O)N[C@@H](CO)C(=O)N[C@@H](CO)C(=O)N[C@@H](CCSC)C(=O)O)[C@@H](C)O [3102.0806] (H-EMILSTSSM-OH) | – | 1.5 | – |
| CC[C@H](C)[C@H](NC(=O)[C@H](CCC(N)=O)NC(=O)[C@@H](N)CC(C)C)C(=O)N[C@@H](Cc1ccccc1)C(=O)N[C@@H](CO)C(=O)N[C@@H](CC(N)=O)C(=O)N[C@@H](CO)C(=O)N[C@H](C(=O)NCC(=O)O)C(C)C [3102.0809] (H-LQIFSNSVG-OH) | – | 2.1 | – |
| CC[C@H](C)[C@H](NC(=O)[C@H](CC(=O)O)NC(=O)[C@H](CC(C)C)NC(=O)[C@H](Cc1ccccc1)NC(=O)[C@@H](N)CC(C)C)C(=O)N[C@@H](CCC(=O)O)C(=O)N[C@@H](CS)C(=O)N[C@@H](Cc1c[nH]cn1)C(=O)N[C@@H](Cc1ccccc1)C(=O)O [3102.0932] (H-LFLDIECHF-OH) | 19 | – | – |
| CC[C@H](C)[C@H](NC(=O)[C@H](Cc1c[nH]cn1)NC(=O)[C@H](Cc1ccc(O)cc1)NC(=O)[C@H](C)NC(=O)[C@H](CCCCN)NC(=O)[C@@H](N)CCCNC(=N)N)C(=O)N[C@H](C(=O)N[C@@H](Cc1ccccc1)C(=O)N[C@@H](Cc1ccccc1)C(=O)O)[C@@H](C)CC [3102.1054] (H-RKAYHIIFF-OH) | 5.4 | – | 0.037 |
| CC(C)C[C@H](NC(=O)[C@H](CO)NC(=O)[C@H](CCC(N)=O)NC(=O)[C@@H](N)Cc1ccc(O)cc1)C(=O)N[C@@H](CO)C(=O)N1CCC[C@H]1C(=O)N1CCC[C@H]1C(=O)N1CCC[C@H]1C(=O)N[C@@H](Cc1ccccc1)C(=O)O [3102.1242] (H-YQSLSPPPF-OH) | 0.5 | – | 0.061 |
| CC(C)C[C@H](NC(=O)[C@H](CO)NC(=O)[C@H](CCCCN)NC(=O)[C@H](CO)NC(=O)[C@H](C)N)C(=O)N[C@@H](CCCCN)C(=O)N1CCC[C@H]1C(=O)N[C@H](C(=O)N[C@@H](CCCCN)C(=O)O)[C@@H](C)O [3102.1346] (H-ASKSLKPTK-OH) | 15 | – | – |
| CC[C@H](C)[C@H](NC(=O)[C@H](CCCCN)NC(=O)[C@H](C)NC(=O)CN)C(=O)NCC(=O)N[C@@H](CS)C(=O)N[C@H](C(=O)N[C@@H](CC(N)=O)C(=O)N[C@H](C(=O)O)C(C)C)[C@@H](C)CC [3102.1347] (H-GAKIGCINV-OH) | 9.1 | – | – |
| CC[C@H](C)[C@H](NC(=O)[C@H](CCCCN)NC(=O)[C@H](CO)NC(=O)[C@H](CCCCN)NC(=O)[C@@H](NC(=O)[C@@H](N)CCCNC(=N)N)[C@@H](C)O)C(=O)N[C@@H](CC(C)C)C(=O)N[C@@H](Cc1ccccc1)C(=O)NCC(=O)O [3102.1348] (H-RTKSKILFG-OH) | 10 | – | – |
| C[C@H](NC(=O)[C@H](C)NC(=O)[C@@H]1CCCN1C(=O)[C@H](CCCCN)NC(=O)[C@H](CO)NC(=O)[C@H](CCCNC(=N)N)NC(=O)[C@H](CO)NC(=O)[C@H](Cc1ccc(O)cc1)NC(=O)[C@@H](N)CCCCN)C(=O)O [3102.1349] (H-KYSRSKPAA-OH) | 5.7 | – | – |
| CC[C@H](C)[C@H](NC(=O)[C@H](Cc1ccc(O)cc1)NC(=O)[C@H](CCC(N)=O)NC(=O)[C@H](Cc1ccc(O)cc1)NC(=O)[C@H](CCSC)NC(=O)[C@H](C)NC(=O)[C@H](C)N)C(=O)N[C@@H](Cc1ccccc1)C(=O)N[C@@H](CC(C)C)C(=O)O [3102.1350] (H-AAMYQYIFL-OH) | 7.5 | – | – |
